Laboratory results as given in the supplement of paper PMC10307832.

Tests used:
Test in all cases: relative viability (nuclei count vs DMSO), 5 days (fraction); higher = more cells survive
[1] = compound: CC1CC(=O)N(C2=CN=C(N=C2N1C3CCCC3)NC4=C(C=C(C=C4)C(=O)NC5CCN(CC5)C)OC)C [NPK76-II-72-1] + COc1cc2c(Oc3ccc(NC(=O)C4(C(=O)Nc5ccc(F)cc5)CC4)cc3F)ccnc2cc1OCCCN1CCOCC1 [Foretinib] (partner 0.25 µM)
How it was run: (§1)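 Dosing by pin tool came one day after lung cancer cell lines were seeded in 1536-well plates, using either one drug or a fixed anchor-drug dose plus five library-drug doses (not always all listed) in √10 steps. After 5 days, nuclei were counted on 4× images. Relative viability is treated-well nuclei count divided by vehicle-well nuclei count, and values are medians of duplicate plates.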

BI-2536 + OSI-027 = compound: CC[C@@H]1C(=O)N(C)c2cnc(Nc3ccc(C(=O)NC4CCN(C)CC4)cc3OC)nc2N1C1CCCC1 [BI-2536] + COc1cccc2cc(-c3nc([C@H]4CC[C@H](C(=O)O)CC4)n4ncnc(N)c34)[nH]c12 [OSI-027] (partner 0.5 µM)
How it was run: as §1

BI-2536 + Lapatinib = compound: CC[C@@H]1C(=O)N(C)c2cnc(Nc3ccc(C(=O)NC4CCN(C)CC4)cc3OC)nc2N1C1CCCC1 [BI-2536] + CS(=O)(=O)CCNCc1ccc(-c2ccc3ncnc(Nc4ccc(OCc5cccc(F)c5)c(Cl)c4)c3c2)o1 [Lapatinib] (partner 2 µM)
How it was run: as §1

BI-2536 + Pemetrexed = compound: CC[C@@H]1C(=O)N(C)c2cnc(Nc3ccc(C(=O)NC4CCN(C)CC4)cc3OC)nc2N1C1CCCC1 [BI-2536] + Nc1nc2[nH]cc(CCc3ccc(C(=O)N[C@@H](CCC(=O)O)C(=O)O)cc3)c2c(=O)[nH]1 [Pemetrexed] (partner 0.2 µM)
How it was run: as §1

| Cell Line | relative viability ([1]; first compound 0.01 µM) | relative viability ([1]; first compound 0.03162 µM) | relative viability ([1]; first compound 0.1 µM) | relative viability ([1]; first compound 0.3162 µM) | relative viability ([1]; first compound 1 µM) | relative viability (BI-2536 + OSI-027; first compound 0.01 µM) | relative viability (BI-2536 + OSI-027; first compound 0.03162 µM) | relative viability (BI-2536 + OSI-027; first compound 0.1 µM) | relative viability (BI-2536 + OSI-027; first compound 0.3162 µM) | relative viability (BI-2536 + OSI-027; first compound 1 µM) | relative viability (BI-2536 + Lapatinib; first compound 0.01 µM) | relative viability (BI-2536 + Lapatinib; first compound 0.03162 µM) | relative viability (BI-2536 + Lapatinib; first compound 0.1 µM) | relative viability (BI-2536 + Lapatinib; first compound 0.3162 µM) | relative viability (BI-2536 + Lapatinib; first compound 1 µM) | relative viability (BI-2536 + Pemetrexed; first compound 0.01 µM) | relative viability (BI-2536 + Pemetrexed; first compound 0.03162 µM) | relative viability (BI-2536 + Pemetrexed; first compound 0.1 µM) | relative viability (BI-2536 + Pemetrexed; first compound 0.3162 µM) | relative viability (BI-2536 + Pemetrexed; first compound 1 µM) |
| --- | --- | --- | --- | --- | --- | --- | --- | --- | --- | --- | --- | --- | --- | --- | --- | --- | --- | --- | --- | --- |
| NCI-H2170 | 0.909 | 0.975 | 1.01 | 0.885 | 1.06 | 0.762 | 0.757 | 0.285 | 0.172 | 0.209 | 0.291 | 0.273 | 0.205 | 0.199 | 0.171 | 0.285 | 0.254 | 0.183 | 0.161 | 0.163 |
| NCI-H2228 | 0.845 | 1.07 | 0.794 | 0.914 | 0.832 | 0.576 | 0.437 | 0.141 | 0.124 | 0.26 | 1.38 | 0.629 | 0.207 | 0.165 | 0.166 | 0.382 | 0.385 | 0.131 | 0.194 | 0.14 |
| NCI-H2347 | 0.844 | 1.1 | 0.935 | 0.424 | 0.917 |  | 0.464 | 0.346 | 0.285 | 0.276 | 0.786 | 0.986 | 0.769 | 0.413 | 0.621 | 0.437 | 0.437 | 0.38 | 0.365 | 0.344 |
| NCI-H2405 | 1.05 | 1.08 | 0.999 | 1.03 | 1.17 | 0.609 | 0.64 | 0.481 | 0.163 | 0.312 | 1.01 | 0.97 | 0.301 | 0.146 | 0.448 | 1.07 | 0.992 | 0.375 | 0.342 | 0.457 |
| NCI-H3122 | 0.93 | 1.01 | 0.902 | 0.866 | 0.958 | 0.944 | 0.16 | 0.13 | 0.17 | 0.213 | 0.943 | 1.07 | 0.296 | 0.258 | 0.228 | 0.212 | 0.171 | 0.159 | 0.129 | 0.121 |
| PC-3 [JPC-3] | 1.04 | 1.06 | 0.96 | 0.952 | 1.12 | 0.828 | 0.581 | 0.333 | 0.179 | 0.16 | 0.462 | 0.456 | 0.441 | 0.451 | 0.233 | 1.23 | 1.04 | 0.319 | 0.299 | 0.24 |
